Reference: patent EP3056202A1, “BENZOPYRROLIDONE DERIVATIVES POSSESSING ANTIVIRAL AND ANTICANCER PROPERTIES” (Max-Planck-Gesellschaft zur Förderung der Wissenschaften …, priority 2015, dated 2016)
Converted amounts (≈) assume the structure as drawn.

Tests used:
human Akt1 kinase = human Akt1 kinase (Homo sapiens, UniProt P31749); experiment: In vitro Akt1 assay (IMAP fluorescence polarization, phosphorylation of TAMRA-peptide); format: biochemical; details: 40 µM ATP; for inhibition at 12.5 µM: 12.5 uM compound, read-out: Akt1 inh% @12.5 uM
Protocol: The inhibition of Akt1 by the compounds described in the present invention were determined measuring the phosphorylation of a fluorescently-labeled peptide (TAMRA-peptide) by human Akt1 kinase by fluorescent polarization using a commercially available IMAP Screening Express Assay Kit (Molecular Devices).
Akt1 kinase assays were performed in low protein binding 384-well plates (Corning). Test compounds were diluted in 100% DMSO to 5 mM stock concentration and then further dilutions were made in H2O or 100% DMSO to desirable concentrations.
Each reaction consisted of 5 nM enzyme: Akt1 kinase, 400 nM TAMRA-peptide (5-TAMRA-GRTGRRNSI-COOH; Genecust), 40 µM ATP and kinase buffer: 20 mM MES pH6, 1 mM DTT, 10 mM MgCl2, 2 mM MnCl2, 0.01 V/V% TritonX (all reagents from Sigma-Aldrich).
(§1) For each reaction, 4 or 6 µl containing TAMRA-peptide, ATP and kinase buffer were combined with 2 µl diluted compound in H2O or 0.02 µl compound in 100% DMSO. The kinase reaction was started by the addition of 2 µl diluted enzyme. The reaction was allowed to run for 1 hour at room temperature. The reaction was stopped by adding 15 µl IMAP beads (1:400 beads in progressive (75% buffer A, 25% buffer B) 1x buffer). After an additional hour, fluorescent polarization (Ex: 550-10 nm, Em: 590-10 nm, Dich: 561 nm) was measured using an Analyst GT (Molecular Devices).

human Ack1 kinase = human Ack1 kinase (Homo sapiens, UniProt Q07912); experiment: In vitro Ack1 assay (TranScreener ADP2 FP, generation of ADP); format: biochemical; details: 12.5 uM compound; 3.5 µM ATP; read-out: Ack1 inh% @12.5 uM
Protocol: The activity of the compounds described in the present invention can be determined by the following kinase assay, which measures the generation of ADP by human Ack1 kinase by fluorescent polarization using a commercially available TranScreener ADP2 FP Assay Kit (BellBrook Labs).
Ack1 kinase assays were performed in low protein binding 384-well plates (Corning). Test compounds were diluted in 100% DMSO to 5 mM stock concentration and then further dilutions were made in H2O or 100% DMSO to desirable concentrations.
Each reaction consisted of 5 nM enzyme: Ack1 kinase, Poly Glu-Tyr (4:1) (Sigma), 3.5 µM ATP and kinase buffer: 20 mM HEPES pH7.5, 1 mM DTT, 2 mM MgCl2, 0.4 mM MnCl2, 0.01 V/V% Tween20 (all reagents from Sigma-Aldrich)
For each reaction, 4 or 6 µl containing Poly Glu-Tyr (4:1), ATP and kinase buffer were combined with 2 µl diluted compound in H2O or 0.02 µl compound in 100% DMSO. The kinase reaction was started by the addition of 2 µl diluted enzyme. The reaction was allowed to run for 1 hour at room temperature. The reaction was stopped by addition of 8 µl ADP detection mixture (1 x) (1 x Detection buffer + 4.78 µg/ml ADP2 Ab + 4 nM ADP Alexa633 Tracer). After an additional hour, fluorescent polarization (Ex: 630-35 nm, Em: 680-30 nm, Dich: 650 nm) was measured using an Analyst GT (Molecular Devices).

human Clk1 kinase = target: T1, human Clk1 kinase (Homo sapiens, UniProt P49759); experiment: In vitro Clk1 assay (IMAP fluorescence polarization); format: biochemical; details: 0.45 µM ATP
T1 construct: Each reaction consisted of 4 nM enzyme: Clk1 kinase domain
Protocol: The activity of the compounds described in the present invention can be determined by the following kinase assay, which measures the phosphorylation of a fluorescently-labeled peptide by human Clk1 kinase by fluorescent polarization using a commercially available IMAP Screening Express Assay Kit (Molecular Devices).
Clk1 kinase assays were performed in low protein binding 384-well plates (Corning). Test compounds were diluted in 100% DMSO to 5 mM stock concentration and then further dilutions were made in H2O or 100% DMSO to desirable concentrations.
Each reaction consisted of 4 nM enzyme: Clk1 kinase domain, 400 nM TAMRA-AFRREWSPGKEAKK-NH2 (Genecust), 0.45 µM ATP (Sigma) and kinase buffer: 20 mM TRIS pH 8, 1 mM DTT, 0.4 mM MgCl2, 0.4 mM MnCl2, 0.01 V/V% Tween20 (all reagents from Sigma-Aldrich)
as §1, with “(1:600” for “(1:400”, “(80 %” for “(75%”, “20%” for “25%”

[1] = tested on: H1 N1 influenza virus strain A/WSN/33; experiment: microbe, parasite or virus in culture; format: cell-based; details: 36 h, read-out: Influenza replication IC50
[2] = tested on: A549 human lung carcinoma cells; experiment: Cell-based EC50 determination, A549 cells (CellTiter-Glo cell viability); details: A549, 24 h, read-out: A549 EC50 24h
Protocol: A549 human lung carcinoma cells were cultured in RPMI 1640 medium (Sigma) supplemented with 10% fetal bovine serum (Sigma) and Antibiotic-Antimycotic (Sigma) in tissue culture flasks at 37°C in a humidified 5% CO2 atmosphere. Cells were routinely assayed for mycoplasma contamination.
Two thousand cells were plated in 384-well tissue culture plates, and treated after 24 hours with a 10-point dilution series of the compounds (1.5 nM-30 uM), using the vehicle, DMSO as control. Cells were incubated for 24 hours after which the relative cell density was determined by CellTiter-Glo Luminescent Cell Viability Assay (Promega). This method determines the number of metabolically active cells in the culture based on quantitation of the ATP present. The luminescent signal was measured with an Analyst GT multimode reader (Molecular Devices). […]

physchem = format: physicochemical; details: kinetic from dmso stock
Protocol: Samples were diluted in DMSO (control), phosphate buffer pH = 7.4 and pH = 2.0, from 5mM stock solutions (solved in DMSO), with a 120 µM final concentration. The samples were incubated for 24 hours at room temperature followed by 30 minutes centrifugation at 3700 rpm. 40 µl of the supernatants were injected into HPLC (Waters 2795 Alliance HPLC equipped with Waters 996 PDA Detector (HPLC column: Waters XBridge, RP C18, 3.5 µm, 4.6 mm x 50 mm; gradient MeCN/H2O, containing 0.1% HCOOH: 5% MeCN (0.5 min), 5% to 95% MeCN (5 min), 95% MeCN (0.5 min); flow rate: 2.0 ml/min)) and the AUC values (measured on sample specific wavelength) of the buffered samples were divided by the AUC values (same wavelength as buffered samples') of the DMSO control samples. Table 3: Solubility in water for several compounds according to general formula (I)

[3] = tested on: HCT-116 human colon carcinoma cell line; experiment: In vitro growth inhibition of colon carcinoma cells, HCT-116 (CellTiter-Glo); format: cell-based; details: 72 hours incubation, read-out: HCT116 EC50
[4] = tested on: HKE3 human colon carcinoma cell line; experiment: In vitro growth inhibition of colon carcinoma cells, HKE3 (CellTiter-Glo); format: cell-based; details: 72 hours incubation
[5] = tested on: HepG2 hepatoblastomaderived cell line; experiment: In vitro growth inhibition, HepG2 (CellTiter-Glo); format: cell-based; details: Homo sapiens, 72 hours incubation

Sequence of human Akt1 kinase (P31749 whole entry): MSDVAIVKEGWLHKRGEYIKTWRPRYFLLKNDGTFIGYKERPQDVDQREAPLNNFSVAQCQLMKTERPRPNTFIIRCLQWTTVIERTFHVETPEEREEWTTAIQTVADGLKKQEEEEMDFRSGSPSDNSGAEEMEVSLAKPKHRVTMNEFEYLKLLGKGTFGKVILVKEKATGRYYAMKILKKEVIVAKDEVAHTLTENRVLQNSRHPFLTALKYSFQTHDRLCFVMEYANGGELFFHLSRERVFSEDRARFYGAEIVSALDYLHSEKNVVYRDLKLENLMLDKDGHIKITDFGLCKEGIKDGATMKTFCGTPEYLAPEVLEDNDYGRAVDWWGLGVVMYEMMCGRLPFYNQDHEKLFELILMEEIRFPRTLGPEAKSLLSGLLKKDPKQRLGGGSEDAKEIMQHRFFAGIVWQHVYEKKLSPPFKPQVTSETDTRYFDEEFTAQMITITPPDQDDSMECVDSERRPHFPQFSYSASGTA
T1 sequence (P49759 161-477 limits assumed): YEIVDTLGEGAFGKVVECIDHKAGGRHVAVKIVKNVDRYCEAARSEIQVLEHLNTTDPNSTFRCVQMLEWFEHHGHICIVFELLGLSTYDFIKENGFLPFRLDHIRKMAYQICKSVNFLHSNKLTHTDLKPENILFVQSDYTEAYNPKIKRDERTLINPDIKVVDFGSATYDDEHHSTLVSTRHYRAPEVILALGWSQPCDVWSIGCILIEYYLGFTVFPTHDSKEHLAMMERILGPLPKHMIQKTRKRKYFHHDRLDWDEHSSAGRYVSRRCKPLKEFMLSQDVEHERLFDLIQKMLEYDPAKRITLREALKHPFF
Sequence of human Ack1 kinase (Q07912 whole entry): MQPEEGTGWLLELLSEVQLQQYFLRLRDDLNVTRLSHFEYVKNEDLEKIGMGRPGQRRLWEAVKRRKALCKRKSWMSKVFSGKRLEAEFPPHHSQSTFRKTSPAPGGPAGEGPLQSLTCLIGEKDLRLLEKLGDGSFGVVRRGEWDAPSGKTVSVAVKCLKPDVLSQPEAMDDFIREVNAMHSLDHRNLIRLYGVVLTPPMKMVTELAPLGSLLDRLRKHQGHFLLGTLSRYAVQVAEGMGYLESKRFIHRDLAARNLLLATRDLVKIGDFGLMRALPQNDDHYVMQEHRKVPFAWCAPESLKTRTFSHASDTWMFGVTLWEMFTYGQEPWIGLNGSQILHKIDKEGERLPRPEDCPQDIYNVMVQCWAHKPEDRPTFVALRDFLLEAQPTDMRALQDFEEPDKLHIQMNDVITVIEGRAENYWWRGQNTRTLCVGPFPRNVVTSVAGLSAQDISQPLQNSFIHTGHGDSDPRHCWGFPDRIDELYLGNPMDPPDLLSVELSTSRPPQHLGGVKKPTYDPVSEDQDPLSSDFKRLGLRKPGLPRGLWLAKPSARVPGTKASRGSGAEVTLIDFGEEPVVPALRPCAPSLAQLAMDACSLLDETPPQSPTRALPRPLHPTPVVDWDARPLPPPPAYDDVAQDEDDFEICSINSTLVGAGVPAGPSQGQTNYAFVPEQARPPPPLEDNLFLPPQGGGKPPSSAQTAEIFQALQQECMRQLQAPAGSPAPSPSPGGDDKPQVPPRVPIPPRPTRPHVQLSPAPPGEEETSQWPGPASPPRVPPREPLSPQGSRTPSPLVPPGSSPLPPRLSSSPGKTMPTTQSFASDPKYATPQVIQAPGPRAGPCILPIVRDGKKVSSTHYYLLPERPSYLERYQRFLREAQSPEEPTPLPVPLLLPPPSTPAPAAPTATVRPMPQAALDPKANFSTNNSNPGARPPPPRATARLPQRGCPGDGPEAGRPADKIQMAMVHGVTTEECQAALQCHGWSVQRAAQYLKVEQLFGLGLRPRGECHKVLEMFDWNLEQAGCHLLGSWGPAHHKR

Structure (SMILES) | inhibition at 12.5 µM (human Akt1 kinase) [%] | IC50 (human Akt1 kinase) [nM] | inhibition at 12.5 µM (human Ack1 kinase) [%] | IC50 (human Clk1 kinase) [nM] | IC50 [1] [nM] | EC50 [2] [nM] | solubility at 24 h (physchem; pH 2, aqueous buffer) [µM] | solubility at 24 h (physchem; pH 7.4, aqueous buffer) [µM] | EC50 [3] [nM] | EC50 [4] [nM] | EC50 [5] [nM]
Cc1ccc([C@@H](C)NC(=O)c2ccc3c(c2)/C(=C(/Nc2cccc(CN4CCCCC4)c2)c2ccccc2)C(=O)N3)cc1 [Compound 27, (3Z)-N-[(1R)-1-(4-methylphenyl)ethyl]-2-oxo-3-(phenyl{[3-(piperidin-1-ylmethyl)phenyl]amino}methylene)indoline-5-carboxamide] | 81.3 | 2960 | 9.9 | 200 | 2460 | 25400 | 110 to 120 (≈ 62.8 to 68.5 µg/mL) | < 10 | 1410 | 1320 | 5240
CC[C@@H](NC(=O)c1ccc2c(c1)/C(=C(/Nc1cccc(CN3CCCCC3)c1)c1ccccc1)C(=O)N2)c1ccccc1 [Compound 12, (3Z)-2-oxo-3-(phenyl{[3-(piperidin-1-ylmethyl)phenyl]amino}methylene)-N-[(1R)-1-phenylpropyl]indoline-5-carboxamide] | 75.1 | 7980 | 18.1 | 210 | 10 | 6890 | 110 to 120 (≈ 62.8 to 68.5 µg/mL) | < 10 | 30 | 20 | 3520
C[C@@H](NC(=O)c1ccc2c(c1)/C(=C(/Nc1ccc(CN3CCCCC3)cc1)c1ccccc1)C(=O)N2)c1ccc(F)cc1 [Compound 23, (3Z)-N-[(1R)-1-(4-fluorophenyl)ethyl]-2-oxo-3-(phenyl{[4-(piperidin-1-ylmethyl)phenyl]amino}methylene)indoline-5-carboxamide] | 92.1 | 180 | 91.1 | 20 | < 10 | 15300 | 110 to 120 (≈ 63.2 to 69 µg/mL) | < 10 | 40 | 40 | 920
